Laboratory results reported in patent EP4745136A1, “PROTEIN TYROSINE PHOSPHATASE INHIBITOR, COMPOSITION COMPRISING SAME, AND MEDICAL USE THEREOF” (Shenzhen Zhongge Biological Technology Co., Ltd., priority 2023, dated 2025).

Assays:
B16F10 cells = assay: B16F10 mIFNγ-induced cell growth inhibition assay (CTG); assay type: cell-based
Protocol: 40 µL (150 cells/well) of B16F10 cells (source ATCC Cat#CRL-6475) were inoculated into a 384-well plate, and the compounds were transferred to the 384-well plate containing cells using EHCO. One group of cells was added with 10 µL of complete medium (RPMI 1640 medium+10% FBS) without mIFNγ, one group was added with 10 µL of complete medium containing mIFNγ (source R&D Cat#485-MI/CF, final concentration 25 ng/ml), and different concentrations of compounds (DMSO content 0.5%) were added to the reaction system. The cell culture plates were incubated at 37 °C in 5% CO2 for 96 h. 25 µL of CTG was added, Envision was used for reading, the cell growth inhibition IC50 value (Cell IC50) was fitted by nonlinear regression analysis using a four-parameter logistic equation with DMSO/mIFNγ as the negative control and [drawing 152] as the positive control.

PTPN2 = target: T1, PTPN2 (Homo sapiens, UniProt P17706); assay: PTPN2 inhibitory activity assay (HTRF); assay type: biochemical; conditions: PTPN2 final concentration 1 nM, substrate 1 µM, 40 min at room temperature
T1 construct: purchased Sino biological 10570-H20B
T1 sequence (P17706 1-415): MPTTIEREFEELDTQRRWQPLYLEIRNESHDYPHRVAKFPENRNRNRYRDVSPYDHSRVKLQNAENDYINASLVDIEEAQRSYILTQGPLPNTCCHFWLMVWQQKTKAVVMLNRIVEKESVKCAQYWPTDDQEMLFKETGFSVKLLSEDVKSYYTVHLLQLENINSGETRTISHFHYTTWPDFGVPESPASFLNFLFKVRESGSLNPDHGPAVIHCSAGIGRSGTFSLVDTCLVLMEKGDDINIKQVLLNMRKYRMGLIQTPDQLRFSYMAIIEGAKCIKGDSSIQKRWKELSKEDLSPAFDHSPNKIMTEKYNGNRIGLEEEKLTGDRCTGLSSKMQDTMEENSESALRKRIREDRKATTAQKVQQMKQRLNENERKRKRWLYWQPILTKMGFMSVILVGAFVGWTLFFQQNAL
Protocol: The present invention employs HTRF assay to characterize the inhibitory activity of compounds against PTPN2. The specific experimental process was as follows: compounds were transferred to a 384-well plate (PE# 6007290) using ECHO, and enzymatic reaction buffer (50 mM HEPES pH 7.5, 10 mM EDTA,0.01% Tween 20, 2 mM DTT) was prepared. PTPN2 (Sino biological #10570-H20B) was diluted in the reaction buffer, PTPN2 (final concentration 1 nM) was added and incubated with the compound at room temperature for 10 min, then the substrate (final concentration 1 µM) (biotin-(NH-CH2-CH2-O-CH2-CH2-O-CH2-CO)-T-R-D-I-(PY)-E-T-D-Y-Y-R-K-K-NH2) (Genscript) was added, and the reaction was terminated by adding a quencher after incubation at room temperature for 40 min. A final concentration of 10 nM Eu-anti-P (PY20) antibody (Cisbio#AD0066) and 15 nM APC-Streptavidin (Cisbio#AD0201) was added and incubated at room temperature for 1 hour. The fluorescence values of the reacted 384-well plates were read at 620 nm and 665 nm using Envision, and the IC50 value of inhibiting PTPN2 enzyme activity (PTPN 2 IC50) was fitted by nonlinear regression analysis of a four-parameter logistic equation.

[1] = Mus musculus, B16-F10; B16F10 cells with mIFNγ final concentration 25 ng/ml, 96 h, CTG readout
[2] = Mus musculus, B16-F10, 96 h, B16F10 cells with mIFNγ final concentration 25 ng/ml, CTG readout
[3] = B16F10 cells with mIFNγ final concentration 25 ng/ml, 96 h, CTG readout

GI50 (B16F10 cells; [1]) [µM] | SMILES | IC50 (PTPN2) [µM] | GI50 (B16F10 cells; [2]) [µM] | GI50 (B16F10 cells; [3]) [µM]
10 to 100 | O=C1CN(c2c(O)cc3c(c2F)C[C@H](NCCC2CCCCC2)C2CC32)S(=O)(=O)N1 (some centres unmarked) [Compound 11] | ≤ 0.02 |  | 
 | CC(C)CCNCC1Cc2cc(O)c(N3CC(=O)NS3(=O)=O)c(F)c2/C1=C\F (racemic) [Compound 7] | 0.02 to 0.1 | 10 to 100 | 
 | O=C1CN(c2c(O)cc3c(c2F)C[C@H](NCCCC(F)(F)F)C2CC32)S(=O)(=O)N1 (some centres unmarked) [Compound 8] | ≤ 0.02 | ≤ 1 | 
 | CC(C)CCN[C@H]1Cc2c(cc(O)c(N3CC(=O)NS3(=O)=O)c2F)C2CC21 (single isomer, unassigned) [Compound 3] | ≤ 0.02 |  | ≤ 1
1 to 10 | O=C1CN(c2c(O)cc3c(c2F)C[C@H](NCC2CCCCO2)C2CC32)S(=O)(=O)N1 (some centres unmarked) [Compound 16] | 0.1 to 0.5 |  | 
 | CC(C)CCN[C@H]1Cc2c(cc(O)c(N3CC(=O)NS3(=O)=O)c2F)C2CC21 (single isomer, unassigned) [Compound 2] | 0.1 to 0.5 |  | 10 to 100
 | CC(C)CCNCC1Cc2cc(O)c(N3CC(=O)NS3(=O)=O)c(F)c2/C1=C/F (single isomer, unassigned) [Compound 5] | 0.1 to 0.5 |  | 10 to 100
1 to 10 | CC(C)(C)CCN[C@H]1Cc2c(cc(O)c(N3CC(=O)NS3(=O)=O)c2F)C2CC21 (some centres unmarked) [Compound 10] | ≤ 0.02 |  | 
 | CC(C)(CCN[C@H]1Cc2c(cc(O)c(N3CC(=O)NS3(=O)=O)c2F)C2CC21)C(F)(F)F (some centres unmarked) [Compound 9] | ≤ 0.02 | 1 to 10 | 
 | CC(C)CCN[C@H]1Cc2c(cc(O)c(N3CC(=O)NS3(=O)=O)c2F)C2CC21 (some centres unmarked) [Compound 1] | ≤ 0.02 | 1 to 10 | 
1 to 10 | O=C1CN(c2c(O)cc3c(c2F)C[C@H](NCCC2CCCC2)C2CC32)S(=O)(=O)N1 (some centres unmarked) [Compound 17] | ≤ 0.02 |  | 
 | CC(C)CCNCC1Cc2cc(O)c(N3CC(=O)NS3(=O)=O)c(F)c2/C1=C/F (single isomer, unassigned) [Compound 6] | ≤ 0.02 |  | ≤ 1
 | CC(C)CCNCC1Cc2cc(O)c(N3CC(=O)NS3(=O)=O)c(F)c2/C1=C/F (racemic) [Compound 4] | ≤ 0.02 | 1 to 10 | 
